Measurements: patent US20230099822A1, “MR1 LIGANDS AND PHARMACEUTICAL COMPOSITIONS FOR IMMUNOMODULATION” (UNIVERSITÄT BASEL, priority 2020, published 2023)

Columns and labels:
[1] = tested on: MR1T cell clones; assay: MR1T cell activation assay with drug-treated THP-1 cells; assay type: cell-based, human; details: for stimulation of TC5A87 MR1T clone (IFN-γ): THP-1 cells incubated 18 h with drug (FIG. 7d, f, g); for T cell response in MR1T cell clones: THP-1 cells treated with drug; for reactivity of DGB129 clone to drug-treated THP-1 cells: drug alone, 25 μM EHNA, 10 μM MPA, 20 μM BBG (FIG. 9H)
Experimental: (§1) MR1T cells (5×10^4/well unless otherwise indicated) were co-cultured with the indicated APCs (10^5 cells per well unless otherwise indicated) for 18 h in 120 μL volume in triplicate. In some experiments, anti-MR1 mAbs (clone 26.5, purified and endotoxin-free mouse IgG2a, (Lepore et al., 2014)) or mouse IgG2a isotype control mAbs (LEAF, Biolegend, Cat #401504) (both at 30 μg/mL) were added and incubated for 30 min at 37° C. prior to the addition of T cells.
(§2) In experiments with mycophenolic acid (10 μM), EHNA (25 μM), S-p-bromobenzylglutathione cyclopentyl diester (BBG, 20 μM) (all from Sigma-Aldrich), THP-1 cells (1×10^6/mL) were treated with the indicated concentrations of drugs in complete medium at 37° C. for 18 h before being washed twice with PBS, counted and used for T-cell activation. In experiments where THP-1 cells (1×10^6/mL) were treated with doxorubicin (75 nM) and paclitaxel (5 μM) (both from Sigma-Aldrich), the cells were incubated at 37° C. for 18 h before being washed twice with PBS, counted, and incubated for 2 h with vehicle or 150 μM dAdo and 150 μM guanosine (Sigma-Aldrich) prior to T-cell addition. In experiments where fixed A375-MR1 cells were used to activate MR1T cells, APCs (4×10^5/mL) were treated with apocynin (APO, 100 μM), L-glutathione reduced (GSH, 4 mM), N-acetyl cysteine (NAC, 4 mM), L-buthionine-sulfoximine (BSO, 400 μM) mercaptosuccinic acid (MSA, 3.3 μM), ML-210 (6 μM) or 1S,3R-RSL3 (RSL3, 1 μM), hydralazine hydrochloride (100 μM) or aminoguanidine hemisulfate salt (5 mM) for 18 h at 37° C. before being washed twice with PBS, fixed with glutaraldehyde, counted and used for MR1T cell stimulation.
(§3) The following human cytokines were assessed by ELISA using specific mAbs: GM-CSF (purified clone BVD2-23B6 and biotinylated clone BVD2-21C11, Biolegend Cat #502202 and 502304, respectively), IFN-γ (purified clone MD-1 and biotinylated clone 4S.B3, Biolegend Cat #507502 and 502504, respectively), IL-13 (purified clone JES10-5A2 and biotinylated clone SB126d, SouthernBiotech Cat #10125-01 and 15930-08, respectively).

[2] = tested on: MR1T cell clones; assay: Competition assay for stimulation of MR1T cell clones; assay type: cell-based, human; details: APCs with compound 2 h (3 doses), then antigen at optimal concentration, cytokine ELISA
Experimental: As positive control for competition with antigens, Ac-6-FP was used (100 μM). Supernatants were collected after 24 h for cytokine analysis measured by ELISA.

[3] = tested on: MR1T cell clones; assay: MR1T cell activation assay with THP-1 cells incubated with compounds (cytokine ELISA); assay type: cell-based, human
Experimental: MR1T cells (5×10^4/well unless otherwise indicated) were co-cultured with the indicated APCs (10^5 cells per well unless otherwise indicated) for 18 h in 120 μL volume in triplicate.
When nucleobases, nucleosides or nucleotides (all 250 μM) and synthetic compounds M3ADE, OPdA, M1G or OPdC were used to stimulate T cells, the THP-1 cells (10^5/well) were cultured 2 h with the indicated molecules or medium only, prior to T-cell addition. When a single concentration of synthetic antigens was used, 100 μM OPdA, 100 μM OPdC and 13 μM M1G were used for all clones, while 100 μM M3ADE was used for all clones except DGB129, AC1A4, AC1B76 and AVA46 for which 1 μM was used.

[4] = target: T1, MR1 surface expression on THP-1 MR1 cells (Homo sapiens, UniProt Q95460); assay: Cell surface MR1 modulation on APCs (flow cytometry, anti-MR1 mAb 26.5); assay type: cell-based; details: THP-1 MR1 cells, 3 h at 37° C., 3 doses each
T1 construct: expressed in transfected cells; host or cells: THP-1 (ATCC TIB-202) stably expressing MR1 (THP1-MR1)
T1 sequence (Q95460 23-341): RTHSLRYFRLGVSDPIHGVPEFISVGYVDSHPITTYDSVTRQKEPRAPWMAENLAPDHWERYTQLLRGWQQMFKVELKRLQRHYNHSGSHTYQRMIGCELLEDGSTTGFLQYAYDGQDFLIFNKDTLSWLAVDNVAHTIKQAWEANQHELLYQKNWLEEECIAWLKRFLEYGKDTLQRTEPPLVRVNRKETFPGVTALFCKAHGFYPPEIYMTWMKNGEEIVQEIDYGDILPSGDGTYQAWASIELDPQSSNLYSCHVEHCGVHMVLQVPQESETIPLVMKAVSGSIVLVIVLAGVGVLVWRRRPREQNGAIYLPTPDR
T1 sequence (P61769 21-119 partner): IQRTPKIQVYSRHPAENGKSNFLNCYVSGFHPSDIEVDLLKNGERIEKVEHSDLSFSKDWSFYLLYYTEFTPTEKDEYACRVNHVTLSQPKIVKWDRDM
Experimental: […] […] For each condition, net MFI was calculated subtracting isotype MFI from anti-MR1 MFI and fold change of cells treated with synthetic molecules over cells treated with vehicle was calculated.

[5] = tested on: MR1T cell clones; assay: MR1T cell activation assay with treated and fixed A375-MR1 cells; assay type: cell-based, human; details: 18 h treatment before fixation; concentrations (FIG. 10D-L)
Experimental: as §1, §2, §3

`CCCCCC[C@@H]([C@@H](C)O)n1cnc2c(N)ncnc21` (racemic) [EHNA, erythro-9-(2-hydroxy-3-nonyl) adenine] was tested, and the “stimulation of TC5A87 MR1T clone (IFN-γ)” value [1] was “induces the stimulation”, the “T cell response in MR1T cell clones” value [1] was “induced a strong stimulation” and the “reactivity of DGB129 clone to drug-treated THP-1 cells” value (“reactivity of DGB129 clone” below) [1] was “reacted”.
For `NC(CCC(=O)NC(CSCc1ccc(Br)cc1)C(=O)NCC(=O)OC1CCCC1)C(=O)OC1CCCC1` (stereo not drawn) [BBG, S-p-bromobenzylglutathione cyclopentyl diester], the “IFN-γ release of both MR1T cell clones to THP-1 cells” value ([1]; BBG in combination with each of MPA and EHNA, clones TC5A87 and DGB129 (FIG. 9G, H)) was “significantly enhanced” and the “reactivity of DGB129 clone” value [1] was “reacted”.
With `C[C@@H](O)[C@H](NC(=O)Nc1ncnc2c1ncn2[C@@H]1O[C@H](CO)[C@@H](O)[C@H]1O)C(=O)O` [Cmpd 5, N6-threonylcarbamoyladenosine] the Competition [2] was “YES”, the “Reactive T cells isolated” value [3] was “YES” and the MRI upregulation [4] was “YES”.
For `CC(C)=CCNc1ncnc2c1ncn2[C@@H]1O[C@H](CO)C(O)C1O` (stereo partly drawn) [Cmpd 6, N6-isopent-2-enyladenosine], the Competition [2] was “YES”, the “Reactive T cells isolated” value [3] was “YES” and the MRI upregulation [4] was “YES”.
With `C[C@@H](O)[C@H](NC(=O)N(C)c1ncnc2c1ncn2[C@@H]1O[C@H](CO)[C@@H](O)[C@H]1O)C(=O)O` [Cmpd 10, N6-methyl-N6-threonylcarbamoyladenosine] the Competition [2] was “YES”, the “Reactive T cells isolated” value [3] was “YES” and the MRI upregulation [4] was “YES”.
`CN(C)c1nc2c(ncn2[C@@H]2O[C@H](CO)[C@@H](O)[C@H]2O)c(=O)[nH]1` [Cmpd 19, N2,N2-dimethylguanosine] was tested, and the Competition [2] was “YES”, the “Reactive T cells isolated” value [3] was “YES” and the MRI upregulation [4] was “YES”.
`Cn1c(=O)ccn([C@@H]2O[C@H](CO)[C@@H](O)[C@H]2O)c1=O` [Cmpd 30, 3-methyluridine] was tested, and the Competition [2] was “YES”, the “Reactive T cells isolated” value [3] was “YES” and the MRI upregulation [4] was “YES”.
For `Cc1ncnc2nc[nH]c12` [Cmpd 43, 6-Methylpurine], the Competition [2] was “YES” and the MRI downmodulation [4] was “YES”.
With `CN(C)c1ncnc2nc[nH]c12` [Cmpd 44, 6-(Dimethylamino)purine] the Competition [2] was “YES” and the MRI upregulation [4] was “YES”.
`CC(C)=CCNc1ncnc2[nH]cnc12` [Cmpd 45, N6-(Δ2-Isopent-2-enyl) adenine] was tested, and the Competition [2] was “YES” and the MRI downmodulation [4] was “YES”.
With `O=c1c(-c2ccc(O)cc2)coc2cc(O[C@@H]3O[C@H](CO)[C@@H](O)[C@H](O)[C@H]3O)ccc12` [Daidzin] the “response of MCA2B9 MR1T clone (IFN-γ)” value ([1]; THP-1 cells incubated 18 h with drug (FIG. 7a, b)) was “increase the response” and the “T cell response in MR1T cell clones” value [1] was “induced a strong T cell response”.
For `O=c1oc2c(O)c(O)cc3c(=O)oc4c(O)c(O)cc1c4c23` [Ellagic acid, ellagic acid], the “stimulation of QY1A16 MR1T clone (IFN-γ)” value ([1]; THP-1 cells incubated 18 h with drug (FIG. 7e)) was “induces the stimulation” and the “T cell response in MR1T cell clones” value [1] was “induced a strong T cell response”.
`N[C@@H](CCC(=O)N[C@@H](CS)C(=O)NCC(=O)O)C(=O)O` [GSH, L-glutathione reduced] was tested, and the “MR1T-cell stimulation (IFN-γ) by treated, fixed A375-MR1 cells” value (from here on “MR1T-cell stimulation (IFN-γ) by treated”) [5] was “significantly less IFN-γ production”.
With `Cc1onc(C(=O)N2CCN(C(c3ccc(Cl)cc3)c3ccc(Cl)cc3)CC2)c1[N+](=O)[O-]` [ML-210] the “MR1T-cell stimulation (IFN-γ) by treated” value [5] was “significantly increased MR1T-cell stimulatory activity”.
In the case of `COc1c(C)c2c(c(O)c1C/C=C(\C)CCC(=O)O)C(=O)OC2` [Mycophenolic acid], the “stimulation of TC5A87 MR1T clone (IFN-γ)” value [1] is reported as “induces the stimulation”, the “T cell response in MR1T cell clones” value [1] is reported as “induced a strong stimulation” and the “reactivity of DGB129 clone” value [1] is reported as “reacted”.
`CC(=O)N[C@@H](CS)C(=O)O` [N-acetylcysteine] was tested, and the “MR1T-cell stimulation (IFN-γ) by treated” value [5] was “significantly less IFN-γ production”.
With `CC1(C)CC[C@]2(C(=O)O)CC[C@]3(C)C(=CC[C@@H]4[C@@]5(C)CC[C@H](O)C(C)(C)[C@@H]5CC[C@]43C)[C@@H]2C1` [Oleanoic acid, oleanoic acid] the “stimulation of TC5A87 MR1T clone (IFN-γ)” value [1] was “induces the stimulation” and the “T cell response in MR1T cell clones” value [1] was “induced a strong T cell response”.
With `COC(=O)c1ccc([C@H]2c3[nH]c4ccccc4c3C[C@H](C(=O)OC)N2C(=O)CCl)cc1` [RSL3, 1S,3R-RSL3] the “MR1T-cell stimulation (IFN-γ) by treated” value [5] was “significantly increased MR1T-cell stimulatory activity”.
